According to US20070134165A1 (Altana Pharma AG, priority 2004, published 2007):

Experiments:
patients with asthma = assay: Double-blind, randomized, parallel group clinical study, ciclesonide vs budesonide once daily in the evening for 12 weeks; format: in vivo; conditions: for FEV1 / FVC / PEF / morning PEF: ex smokers, ITT, LSmeans
Source text: Another objective was to provide information on the safety and tolerability of ciclesonide.

[1] = test system: glucocorticosteroid receptor; conditions: ratio versus ciclesonide; cited from earlier work
asthma patients = conditions: ex-smokers, ciclesonide versus budesonide; cited from earlier work
[2] = cited from earlier work
[3] = end of 12 weeks, CIC 200 μg or BUD 400 μg once daily in the evening

CCCC1O[C@@H]2C[C@H]3[C@@H]4CCC5=CC(=O)C=C[C@]5(C)[C@H]4[C@@H](O)C[C@]3(C)[C@]2(C(=O)CO)O1 (stereo partly shown) [budesonide] showed an FEV1 (patients with asthma; [3]) of 2.602 L, an FVC (patients with asthma; [3]) of 3.385 L and a PEF (patients with asthma; [3]) of 357 L/min. It also gave a morning PEF (patients with asthma; [3]) of 391 L/min, an FEV1 (patients with asthma; start of treatment) of 2.339 L and an FVC (patients with asthma; start of treatment) of 3.146 L. For the same compound, the PEF (patients with asthma; start of treatment) was 310 L/min and the morning PEF (patients with asthma; start of treatment) was 370 L/min.

For C[C@]12C=CC(=O)C=C1CC[C@@H]1[C@@H]2[C@@H](O)C[C@@]2(C)[C@H]1C[C@H]1O[C@@H](C3CCCCC3)O[C@]12C(=O)CO (mixture of isomers) [desisobutyryl-ciclesonide, 16α,17-(22R,S)-cyclohexylmethylenedioxy-11β,21-dihydroxypregna-1,4-diene-3,20-dione], the “affinity to the glucocorticosteroid receptor relative to ciclesonide” value [1] is listed as “approximately 100 times higher”.

In the case of CC(C)C(=O)OCC(=O)[C@@]12O[C@H](C3CCCCC3)O[C@@H]1C[C@H]1[C@@H]3CCC4=CC(=O)C=C[C@]4(C)[C@H]3[C@@H](O)C[C@@]12C [Ciclesonide, [11β,16α(R)]-16,17-[(Cyclohexylmethylene)bis(oxy)]-11-hydroxy-21-(2-methyl-1-oxo-propoxy)pregna-1,4-diene-3,20-dione], the “subgroup analysis of FEV1” value (asthma patients) is listed as “trend for superiority of ciclesonide over budesonide”, the “change in FEV1, subgroup analysis” value (patients with asthma; (ex-)smokers subgroup, after 12 weeks of treatment) is listed as “statistically significant increases” and the FEV1 (patients with asthma; [3]) is listed as 2.773 L. The FVC (patients with asthma; [3]) was 3.604 L, the PEF (patients with asthma; [3]) was 391 L/min and the morning PEF (patients with asthma; [3]) was 416 L/min. It also gave an FEV1 (patients with asthma; start of treatment) of 2.336 L, an FVC (patients with asthma; start of treatment) of 3.146 L and a PEF (patients with asthma; start of treatment) of 310 L/min. The morning PEF (patients with asthma; start of treatment) was 370 L/min, the “improvement in lung function compared to treatment with budesonide” value (patients with asthma; smoking asthmatic patients) was “superior improvements in lung function” and the “concentration of the drug in the lungs” value ([2]; in vivo) was “high”. The “metabolism by liver oxidases” value ([2]; in vivo) was “very high”, the plasma half-life ([2]; in vivo) was “low” and the systemic activity ([2]; in vivo) was “low”. For the same compound, the “absorption after oral administration” value ([2]; oral) was “only moderately absorbed”.
